Data: ChEMBL document CHEMBL4417631, “Oral peptide inhibitors of interleukin-23 receptor and their use to treat inflammatory bowel diseases” (2017)
*1 amine or outer side, *2 acyl side, *3 side chain or, on linkers, in order; H or OH if unused. Where a SMILES comes first, the peptide text is derived from it. Bridges are numbered along the chain shown (N, C = ends). [ ]: non-standard residue; d: D form. Abu(4-yl) = O=C([C@H](CC[*:3])N[*:1])[*:2]; 2Nal = N[C@@H](Cc1ccc2ccccc2c1)C(=O)O; AEF = NCCOc1ccc(C[C@H](N)C(=O)O)cc1; αMeK = C[C@](N)(CCCCN)C(=O)O; Aib = CC(C)(N)C(=O)O

Tests used:
[1] = Inhibition of interleukin-23 binding to rat interleukin-23 receptor incubated for 2 hrs by competitive binding ELISA
[2] = Half life in DTT at 50 uM up up to 120 mins by reverse phase HPLC and UV detection based assay; type: physicochemical
[3] = Half life in simulated intestinal fluid at 20 uM by LC-MS/MS analysis; type: ADME
Interleukin-23 receptor [4] = biological target: T1, Interleukin-23 receptor (Homo sapiens, UniProt Q5VWK5); assay: Inhibition of interleukin-23 binding to human interleukin-23 receptor incubated for 2 hrs by competitive binding ELISA
T1 sequence (Q5VWK5 whole entry): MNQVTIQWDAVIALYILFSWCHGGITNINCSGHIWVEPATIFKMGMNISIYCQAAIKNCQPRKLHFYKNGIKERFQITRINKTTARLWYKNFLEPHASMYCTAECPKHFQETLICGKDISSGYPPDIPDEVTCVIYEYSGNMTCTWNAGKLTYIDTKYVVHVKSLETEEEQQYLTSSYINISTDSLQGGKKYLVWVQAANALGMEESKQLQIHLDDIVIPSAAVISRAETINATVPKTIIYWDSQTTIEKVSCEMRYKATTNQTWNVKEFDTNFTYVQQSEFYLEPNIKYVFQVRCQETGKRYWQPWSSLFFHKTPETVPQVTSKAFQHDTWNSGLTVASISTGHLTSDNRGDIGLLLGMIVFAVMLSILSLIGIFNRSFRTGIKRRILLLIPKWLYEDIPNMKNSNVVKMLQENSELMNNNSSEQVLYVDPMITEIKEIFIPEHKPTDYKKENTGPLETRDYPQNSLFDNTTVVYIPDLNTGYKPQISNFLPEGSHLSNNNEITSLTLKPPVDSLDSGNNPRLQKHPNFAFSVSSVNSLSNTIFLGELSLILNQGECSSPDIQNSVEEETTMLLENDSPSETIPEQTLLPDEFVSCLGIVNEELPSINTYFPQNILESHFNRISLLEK

Interleukin-23 receptor [5] = biological target: T1, Interleukin-23 receptor; assay: Inhibition of interleukin-23 receptor in human DB cells assessed as reduction in IL-23-stimulated STAT3 phosphorylation incubated for 30 mins by HTRF assay; type: cell-based
Interleukin-23 receptor [6] = biological target: T1, Interleukin-23 receptor; assay: Inhibition of interleukin-23 receptor in human natural killer cells assessed as reduction in IL23/IL18-induced IFNgamma production incubated for 20 to 24 hrs by ELISA; type: cell-based
[7] = Half life in simulated gastric fluid at 20 uM by LC-MS/MS analysis; type: ADME

Row | IC50 [1] | half-life at 50 µM [2] | half-life at 20 µM [3] | IC50 (Interleukin-23 receptor [4]) | IC50 (Interleukin-23 receptor [5]) | half-life at 20 µM [7] | SMILES | IC50 (Interleukin-23 receptor [6])
1 | 100 to 1000 nM | > 2 h | 3 to 6 h | 25 to 100 nM | 10 to 25 nM |  | CC(=O)N[C@H](C(=O)N[C@@H](CCC(N)=O)C(=O)N[C@H](C(=O)N[C@@H](Cc1c[nH]c2ccccc12)C(=O)N[C@@H](CCC(N)=O)C(=O)N[C@H](C(=O)N[C@@H](Cc1ccc(O)cc1)C(=O)N[C@@H](Cc1c[nH]c2ccccc12)C(=O)N[C@@](C)(CC(C)C)C(=O)N[C@@H](CCC(=O)O)C(=O)N[C@@H](CC(N)=O)C(=O)NCC(N)=O)C(C)(C)S)[C@@H](C)O)C(C)(C)S | 
2 | < 10 nM |  | 3 to 6 h | < 10 nM | < 10 nM | < 1 h | CC(=O)NCCCC[C@H](NC(=O)[C@](C)(CCCCNC(C)=O)NC(=O)[C@H](Cc1ccc2ccccc2c1)NC(=O)[C@H](Cc1ccc(OCCNC(C)=O)cc1)NC(=O)[C@@H]1CSCC[C@H](NC(C)=O)C(=O)N[C@@H](CCC(N)=O)C(=O)N[C@@H]([C@@H](C)O)C(=O)N[C@@H](Cc2c[nH]c3ccccc23)C(=O)N[C@@H](CCC(N)=O)C(=O)N1)C(=O)N[C@@H](CC(N)=O)C(=O)NCC(N)=O | < 25 nM
3 | 10 to 25 nM |  | > 6 h | < 10 nM | < 10 nM | > 6 h | CC(=O)N[C@H]1CCSC[C@@H](C(=O)N[C@@H](Cc2ccc(OCCN)cc2)C(=O)N[C@@H](Cc2ccc3ccccc3c2)C(=O)N[C@@](C)(CCCCN)C(=O)N[C@@H](CCCCNC(=O)CC(C)C)C(=O)N[C@@H](CC(N)=O)C(=O)NCC(N)=O)NC(=O)[C@H](CCC(N)=O)NC(=O)[C@H](Cc2c[nH]c3ccccc23)NC(=O)[C@H]([C@@H](C)O)NC(=O)[C@H](CCC(N)=O)NC1=O | < 25 nM
4 |  | 0.167 to 2 h |  |  |  |  | CC(=O)N[C@@H](CS)C(=O)N[C@@H](CCC(N)=O)C(=O)N[C@H](C(=O)N[C@@H](Cc1c[nH]c2ccccc12)C(=O)N[C@@H](CCC(N)=O)C(=O)N[C@@H](CS)C(=O)N[C@@H](Cc1ccc(O)cc1)C(=O)N[C@@H](Cc1c[nH]c2ccccc12)C(=O)N[C@@H](CCC(C)C)C(=O)N[C@@H](CCC(=O)O)C(=O)N[C@@H](CC(N)=O)C(=O)NCC(N)=O)[C@@H](C)O | 
5 | < 10 nM |  | > 6 h | < 10 nM | < 10 nM | > 6 h | CC(=O)NCCCC[C@H](NC(=O)C(C)(C)NC(=O)[C@H](Cc1ccc2ccccc2c1)NC(=O)[C@H](Cc1ccc(OCCN)cc1)NC(=O)[C@@H](NC(=O)[C@H](CCC(N)=O)NC(=O)[C@H](Cc1c[nH]c2ccccc12)NC(=O)[C@@H](NC(=O)[C@H](CC(N)=O)NC(=O)[C@@H](NC(C)=O)C(C)(C)S)[C@@H](C)O)C(C)(C)S)C(=O)N[C@@H](CC(N)=O)C(=O)N[C@@H](CC(N)=O)C(N)=O | < 10 nM
6 | < 10 nM |  | 3 to 6 h | < 10 nM | < 10 nM | 3 to 6 h | CC(=O)N[C@H]1CCSC[C@@H](C(=O)N[C@@H](Cc2ccc(OCCN)cc2)C(=O)N[C@@H](Cc2ccc3ccccc3c2)C(=O)N[C@@](C)(CCCCN)C(=O)N[C@@H](CCC(=O)O)C(=O)N[C@@H](CC(N)=O)C(=O)N[C@@H](CCC(N)=O)C(N)=O)NC(=O)[C@H](CCC(N)=O)NC(=O)[C@H](Cc2c[nH]c3ccccc23)NC(=O)[C@H]([C@@H](C)O)NC(=O)[C@H](CCC(N)=O)NC1=O (Ac-[Abu(4-yl)]QTWQC[AEF][2Nal][αMeK]ENQ-NH2; thioether 1-6) | < 25 nM
7 | 100 to 1000 nM | > 2 h | < 1 h | 25 to 100 nM | 25 to 100 nM |  | CC(=O)N[C@H]1CCSC[C@@H](C(=O)N[C@@H](Cc2ccc(O)cc2)C(=O)N[C@@H](Cc2c[nH]c3ccccc23)C(=O)N[C@@H](CCCNC(=N)N)C(=O)N[C@@H](CCCCN)C(=O)N[C@@H](Cc2ccccc2)C(=O)NCC(=O)NCCOCC(=O)N[C@H](CCCCN)C(N)=O)NC(=O)[C@H](CCC(N)=O)NC(=O)[C@H](Cc2c[nH]c3ccccc23)NC(=O)[C@H]([C@@H](C)O)NC(=O)[C@H](CCCNC(=N)N)NC1=O | 
8 | 10 to 25 nM |  | 2 to 3 h | < 10 nM | < 10 nM | 3 to 6 h | CC(=O)N[C@H]1CCSC[C@@H](C(=O)N[C@@H](Cc2ccc(OCCN)cc2)C(=O)N[C@@H](Cc2ccc3ccccc3c2)C(=O)NC(C)(C)C(=O)N[C@@H](CCC(N)=O)C(=O)N[C@@H](CC(N)=O)C(=O)NCC(N)=O)NC(=O)[C@H](CCC(N)=O)NC(=O)[C@H](Cc2c[nH]c3ccccc23)NC(=O)[C@H]([C@@H](C)O)NC(=O)[C@H](CCC(N)=O)NC1=O (Ac-[Abu(4-yl)]QTWQC[AEF][2Nal][Aib]QNG-NH2; thioether 1-6) | < 25 nM
9 |  | < 0.167 h |  | < 500 nM |  |  | CC(=O)N[C@@H](CS)C(=O)N[C@@H](CCCNC(=N)N)C(=O)N[C@H](C(=O)N[C@@H](Cc1c[nH]c2ccccc12)C(=O)N[C@@H](CCC(=O)O)C(=O)N[C@@H](CS)C(=O)N[C@@H](Cc1ccc(O)cc1)C(=O)N[C@@H](Cc1c[nH]c2ccccc12)C(=O)N[C@@H](Cc1cnc[nH]1)C(=O)N[C@@H](CCC(=O)O)C(=O)N[C@@H](Cc1ccccc1)C(=O)NCC(N)=O)[C@@H](C)O (Ac-CRTWECYWHEFG-NH2) | 
10 | 10 to 25 nM |  | 1 to 2 h | < 10 nM | < 10 nM | < 1 h | CC(=O)NCCCC[C@H](NC(=O)C(C)(C)NC(=O)[C@H](Cc1ccc2ccccc2c1)NC(=O)[C@H](Cc1ccc(OCCN)cc1)NC(=O)[C@@H]1CSCC[C@H](NC(C)=O)C(=O)N[C@@H](CCC(N)=O)C(=O)N[C@@H]([C@@H](C)O)C(=O)N[C@@H](Cc2c[nH]c3ccccc23)C(=O)N[C@@H](CCC(N)=O)C(=O)N1)C(=O)N[C@@H](CC(N)=O)C(=O)N[C@@H](C)C(N)=O | < 25 nM
11 |  | > 2 h |  |  |  |  | CC(=O)N[C@H]1CCSC[C@@H](C(=O)N[C@@H](Cc2ccc(OCCN)cc2)C(=O)N[C@@H](Cc2ccc3ccccc3c2)C(=O)NC2(C(=O)N[C@@H](CCC(=O)O)C(=O)N[C@@H](CC(N)=O)C(=O)N[C@@H](CC(N)=O)C(N)=O)CCOCC2)NC(=O)[C@H](CCC(N)=O)NC(=O)[C@H](Cc2c[nH]c3ccccc23)NC(=O)[C@H]([C@@H](C)O)NC(=O)[C@H](CCC(N)=O)NC1=O | 
12 |  | 0.167 to 2 h |  |  |  |  | CC(=O)N[C@@H](CS)C(=O)N[C@@H](C)C(=O)N[C@@H](CC(=O)O)C(=O)N[C@@H](Cc1c[nH]c2ccccc12)C(=O)N[C@H](C(=O)N[C@@H](Cc1c[nH]c2ccccc12)C(=O)N[C@@H](CS)C(=O)N[C@@H](Cc1ccc(O)cc1)C(=O)N[C@@H](Cc1c[nH]c2ccccc12)C(=O)N[C@@H](Cc1cnc[nH]1)C(=O)N[C@H](C(=O)N[C@@H](Cc1ccccc1)C(=O)NCC(=O)N[C@@H](C)C(=O)N1CC[C@H]1C(=O)N[C@H](CCCCN)C(N)=O)[C@@H](C)O)C(C)C | 
13 |  | > 2 h | < 1 h | 100 to 1000 nM |  |  | CC(=O)N[C@H](C(=O)N[C@@H](CCC(N)=O)C(=O)N[C@H](C(=O)N[C@@H](Cc1c[nH]c2ccccc12)C(=O)N[C@@H](CCC(N)=O)C(=O)N[C@H](C(=O)N[C@@H](Cc1ccc(O)cc1)C(=O)N[C@@H](Cc1c[nH]c2ccccc12)C(=O)N[C@@H](CCC(C)C)C(=O)N[C@@H](CCC(=O)O)C(=O)N[C@@H](CC(N)=O)C(=O)NCC(N)=O)C(C)(C)S)[C@@H](C)O)C(C)(C)S | 
14 | 100 to 1000 nM | > 2 h | 3 to 6 h | 25 to 100 nM | 10 to 25 nM | 2 to 3 h | COc1ccc(C[C@H](NC(=O)[C@@H](NC(=O)[C@H](CCC(N)=O)NC(=O)[C@H](Cc2c[nH]c3ccccc23)NC(=O)[C@@H](NC(=O)[C@H](CCC(N)=O)NC(=O)[C@@H](NC(C)=O)C(C)(C)S)[C@@H](C)O)C(C)(C)S)C(=O)N[C@@H](Cc2ccc3ccccc3c2)C(=O)N[C@@](C)(CCCCN)C(=O)N[C@@H](CCC(=O)O)C(=O)N[C@@H](CC(N)=O)C(=O)NCC(N)=O)cc1 | 
